From patent publication US5086074A, “1-aminomethyl-1,2,3,4-tetrahydronaphthalenes” (Abbott Laboratories, priority 1990, dated 1992)
Where a name gives a salt, the structure may show the parent alone.

system: alpha-2-receptor; assay: Radioligand binding, alpha-2 adrenoceptor, rat cerebral cortices, [3H]-rauwolscine; conditions: ratio Ki alpha-1/Ki alpha-2
Procedure: (§1) The compounds were assessed for alpha-adrenergic receptor subtype selectivity by use of radioligand binding techniques as described previously (DeBernardis et.al. J. Med. Chem. 28, 1398 (1985)).

alpha-2 - Selectivity Ki alpha-1/Ki alpha-2 | Molecule
11 | 5-Methoxy-1-(3-phenylpyrrolidino-1-methyl) indane hydrochloride [Example 152]
430 | COc1ccc2c(c1)CCCC2CN(C)CCC1CCCS1 (stereo not drawn) [Example 6h, 1-((N-methylamino)methyl-N-(2-(2-tetrahydrothienyl)ethyl)) 6-methoxy tetralin hydrochloride]
45 | Fc1ccc2c(c1)CCCC2CN1CCC(c2cccs2)C1 (stereo not drawn) [Example 149, 6-Fluoro-1-(3-(2-thienyl)pyrrolidino-1-methyl) tetralin methanesulfonate]

target: T1, alpha-1-receptor (Rattus norvegicus, UniProt P15823); assay: Radioligand binding, alpha-1 adrenoceptor, rat liver homogenates, [3H]-prazosin; conditions: not given
T1 construct: rat liver homogenates; from tissue; host or cells: rat liver homogenate
T1 sequence (P15823 1-515): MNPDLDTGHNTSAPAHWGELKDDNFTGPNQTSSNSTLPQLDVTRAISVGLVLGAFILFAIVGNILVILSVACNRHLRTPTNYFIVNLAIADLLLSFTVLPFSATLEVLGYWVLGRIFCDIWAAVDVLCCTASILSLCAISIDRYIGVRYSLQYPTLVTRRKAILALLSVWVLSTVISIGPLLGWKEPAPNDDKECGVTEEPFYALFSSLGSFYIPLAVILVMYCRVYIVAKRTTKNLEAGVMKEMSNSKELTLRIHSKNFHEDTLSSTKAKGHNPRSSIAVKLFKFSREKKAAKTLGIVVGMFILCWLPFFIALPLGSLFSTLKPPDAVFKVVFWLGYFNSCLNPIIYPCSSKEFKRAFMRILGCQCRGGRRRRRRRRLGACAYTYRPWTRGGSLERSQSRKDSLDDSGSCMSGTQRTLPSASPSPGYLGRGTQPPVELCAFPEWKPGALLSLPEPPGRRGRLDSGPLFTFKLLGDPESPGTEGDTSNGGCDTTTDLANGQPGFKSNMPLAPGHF
Procedure: as §1

Molecule | Ki
COC(=O)[C@H]1[C@H]2C[C@H]3c4[nH]c5ccccc5c4CCN3C[C@H]2CC[C@@H]1O [Rauwolscine, reference compound] | 392 nM

same assay, conditions: rat liver homogenates, [3H]-prazosin; read-out: Ki alpha-1

Ki | Molecule
580 nM | COc1ccc2c(c1)CCCC2CN(C)CCc1cccs1 (stereo not drawn) [Example 5, ((N-Methylamino)methyl-N-(2-(2-thienyl)ethyl)) 6-methoxy tetralin methanesulfonate]
1180 nM | COc1ccc2c(c1)CCCC2CN(C)CCc1cccc(F)c1 (stereo not drawn) [Example 6b, 1-((N-methylamino)methyl-N-(2-(m-fluorophenyl)ethyl))-6-methoxy tetralin hydrochloride]
500 nM | COc1ccc2c(c1)CCCC2CN(C)CCc1ccsc1 (stereo not drawn) [Example 6d, 1-((N-methylamino)methyl-N-(2-(3-thienyl)ethyl))-6-methoxy tetralin hydrochloride]
1510 nM | COc1ccc2c(c1)CCCC2CN(C)CCC1CCCS1 (stereo not drawn) [Example 6h, 1-((N-methylamino)methyl-N-(2-(2-tetrahydrothienyl)ethyl)) 6-methoxy tetralin hydrochloride]
565 nM | CN(CCc1cccs1)CC1CCCc2cc(O)ccc21 (stereo not drawn) [Example 7, 1-((N-Methylamino)methyl N-(2-(2-thienyl)ethyl)) 6-hydroxy tetralin hydrochloride]
1210 nM | COc1ccc2c(c1)CCCC2CN(C)CCc1cccn1C (stereo not drawn) [Example 12, 1-((N-Methylamino)methyl-N-(2-(N-methyl-2-pyrrolyl)ethyl))-6-methoxy tetralin fumarate]
695 nM | CN(CCc1cccs1)CC1CCCc2ccccc21 (stereo not drawn) [Example 22, 1-((N-Methylamino)methyl-N-(2-(2-thienyl)ethyl)) tetralin hydrochloride]
445 nM | CN(CCc1cccs1)CC1CCCc2c1ccc1c2OCO1 (stereo not drawn) [Example 23, 1-((N-Methylamino)methyl-N-(2-(2-thienyl)ethyl))-5,6-methylenedioxy tetralin hydrochloride]
175 nM | COc1cc2c(c(OC)c1)C(CN(C)CCc1cccs1)CCC2 (stereo not drawn) [Example 26, 1-((N Methylamino)methyl-N-(2-(2-thienyl)ethyl))6,8-dimethoxy tetralin hydrochloride]
525 nM | COc1ccc2c(c1)C(CN(C)CCc1cccs1)CCC2 (stereo not drawn) [Example 27, 1-((N-Methylamino)methyl-N (2-(2-thienyl)ethyl))7-methoxy tetralin hydrochloride]
470 nM | CN(CCc1cccs1)CC1CCCc2c1ccc1c2OCCO1 (stereo not drawn) [Example 30, 1-((N Methylamino)methyl-N-(2-(2-thienyl)ethyl))-5,6-ethylenedioxy tetralin hydrochloride]
330 nM | Cc1cc(O)c(O)c2c1C(CN(C)CCc1cccc(F)c1)CCC2 (stereo not drawn) [Example 34, 1-((N-Methylamino)methyl-N (2-(m-fluorophenyl)ethyl))-5,6-dihydroxy-8-methyl tetralin hydrobromide]
645 nM | COc1ccc2c(c1)CCC2CN(C)CCc1cccs1 (stereo not drawn) [Example 37, 1-((N-Methylamino)methyl-N-(2-(2-thienyl)ethyl))-5-methoxy indane hydrochloride]
950 nM | CCN(CCc1cccs1)CC1CCCc2cc(OC)ccc21 (stereo not drawn) [Example 41, 1-((N Ethylamino)methyl-N (2-(2-thienyl)ethyl))-6methoxy tetralin hydrochloride]
1050 nM | CCN(CCc1cccc(F)c1)CC1CCCc2cc(OC)ccc21 (stereo not drawn) [Example 42, 1-((N Ethylamino)methyl-N-(2-(m-fluorophenyl)ethyl))-6-methoxy tetralin hydrochloride]
1400 nM | CCN(CCc1ccco1)CC1CCCc2cc(OC)ccc21 (stereo not drawn) [Example 43, 1-((N-Ethylamino)methyl-N-(2-(2-furyl)ethyl))-6-methoxy tetralin hydrochloride]
590 nM | CCN(CCc1ccsc1)CC1CCCc2cc(OC)ccc21 (stereo not drawn) [Example 44, 1-((N-Ethylamino)methyl-N-(2-(3-thienyl)ethyl))-6-methoxy tetralin hydrochloride]
1830 nM | CCCN(CCc1cccs1)CC1CCCc2cc(OC)ccc21 (stereo not drawn) [Example 58, 1-((N-Propylamino)methyl)-N-(2-(2-thienyl)ethyl))-6-methoxy tetralin hydrochloride]
1170 nM | COc1ccc2c(c1)CCCC2CN(C)CCc1cccc(N)c1 (stereo not drawn) [Example 67, 1-((N-Methylamino)methyl-N-(2-(m-aminophenyl)ethyl))-6-methoxy tetralin dihydrochloride]

Ki | Molecule
1170 nM | CN(CCc1cccc(N)c1)CC1CCCc2cc(O)ccc21 (stereo not drawn) [Example 68, 1-((N-Methylamino)methyl N-(2-(m-aminophenyl)ethyl))-6-hydroxy tetralin dihydrobromide]
525 nM | CN(CCc1cccc(F)c1)CC1CCCc2ccccc21 (stereo not drawn) [Example 70, 1-((N Methylamino)methyl-N-(2-(mfluorophenyl)ethyl))-tetralin hydrochloride]
495 nM | CN(CCc1cccc(O)c1)CC1CCCc2cc(O)ccc21 (stereo not drawn) [Example 82, 1-((N-Methylamino)methyl-N-(2-(m-hydroxyphenyl)ethyl))-6-hydroxy tetralin hydrochloride]
955 nM | COc1ccc2c(c1)CCCC2CN(C)CCc1cccc(O)c1 (stereo not drawn) [Example 83, 1-((N-Methylamino)methyl-N-(2-(m-hydroxyphenyl)ethyl))-6-methoxy tetralin hydrochloride]
260 nM | CN(CCc1cccc(F)c1)CC1CCCc2c1ccc(O)c2O (stereo not drawn) [Example 85, 1-((N-Methylamino)methyl-N-(2-(m-fluorophenyl)ethyl))-5,6-dihydroxy tetralin hydrochloride]
495 nM | COc1ccc2c(c1OC)CCCC2CN(C)CCc1cccs1 (stereo not drawn) [Example 86, 1-((N-Methylamino)methyl-N-(2-(2-thienyl)ethyl))-5,6-dimethoxy tetralin hydrochloride]
444 nM | CN(CCc1cccs1)CC1CCCc2c1ccc(O)c2O (stereo not drawn) [Example 87, 1-((N-Methylamino)methyl-N-(2-(2-thienyl)ethyl))-5,6-dihydroxy tetralin hydrochloride]
315 nM | CN(CCc1ccccc1)CC1CCCc2ccccc21 (stereo not drawn) [Example 88, 1-((N-Methylamino)methyl-N-(2-phenethyl))-tetralin hydrochloride]
725 nM | CN(CCc1ccccc1)CC1CCCc2cc(N)ccc21 (stereo not drawn) [Example 114, 1-((N-Methylaminomethyl-N-(2-phenylethyl))-6-aminotetralindihydrochloride]
530 nM | CN(CCc1cccs1)CC1CCCc2c1ccc(O)c2I (stereo not drawn) [Example 115, 1-((N-Methylamino)methyl-N-(2-(2-thienyl)ethyl))-5-iodo-6-hydroxy tetralin hydrochloride]
855 nM | COc1cc2c(cc1C)C(CN(C)CCc1ccco1)CCC2 (stereo not drawn) [Example 128, 1-((N-Methylamino)methyl-N-(2-(2-furyl)ethyl))6-methoxy-7-methyl tetralin hydrochloride]
880 nM | COc1cc2c(cc1F)C(CN(C)CCc1ccco1)CCC2 (stereo not drawn) [Example 141, 1-((N-methylamino)methyl-N-(2-(2-furyl)ethyl))-6-methoxy-7-fluoro tetralin methanesulfonate]
245 nM | c1csc(C2CCN(CC3CCCc4c3ccc3c4OCO3)C2)c1 (stereo not drawn) [Example 144, 5,6-Methylenedioxy-1-(3-(2-thienyl)pyrrolidino-1-methyl) tetralin methanesulfonate]
954 nM | CCN(CCc1cccs1)CC1CCCc2c1ccc1c2OCO1 (stereo not drawn) [Example 164, 1-(N Ethylamino)methyl-N-(2-(2-thienyl)ethyl))-5,6-methylenedioxy tetralin hydrochloride]
462 nM | CCN(CCc1cccc(F)c1)CC1CCCc2c1ccc1c2OCO1 (stereo not drawn) [Example 165, 1-((N-Ethylamino)methyl-N-(2-m-fluorophenethyl))-5,6-methylenedioxy tetralin hydrochloride]
603 nM | CN(CCc1cccc(F)c1)CC1CCCc2c1ccc1c2OCO1 (stereo not drawn) [Example 166, 1-((N-Methylamino)methyl-N (2-m-fluorophenethyl))-5,6-methylenedioxy tetralin methanesulfonate]
823 nM | CCN(CCc1cccs1)CC1CCCc2c1ccc1c2OCCO1 (stereo not drawn) [Example 168, 1-((N Ethylamino)methyl-N-(2-(2-thienyl)ethyl))-5,6-ethylenedioxy tetralin hydrochloride]
79 nM | Fc1ccccc1C1CCN(CC2CCCc3c2ccc2c3OCO2)C1 (stereo not drawn) [Example 176a, 5,6-Methylenedioxy-1-(3-(o-fluorophenyl)pyrrolidino-1-methyl) tetralin methanesulfonate]

Molecule | Ki
COc1ccc2c(c1)CCCC2CN(C)CCC1CCCC1 (stereo not drawn) [Example 6f, 1-((N methylamino)methyl -N-(2-(cyclopentyl)ethyl))-6-methoxy tetralin hydrochloride] | 2160 nM
